Patent US4143133A, “Claudogenic-interceptive nonapeptides” (American Home Products Corporation, priority 1977, dated 1979)

Columns and labels:
[1] = system: Proestrous female Sprague-Dawley rats; test: Ovulation induction in Nembutal-treated proestrous rats; format: in vivo, rat; settings: for Dose giving ovulation inducing activity in 100 percent of the rats: via the jugular vein, Nembutal 50 mg/kg i.p.
Procedure: The ovulation-induction properties of the nonapeptides of this invention was determined as follows:
Proestrous female Sprague-Dawley rats were injected intraperitoneally with a hypnotic dose of Nembutal® (50 mg/kg) at 1:30 P.M. Between 1:40 and 1:50 P.M. the rats received the test material via the jugular vein. The following morning the animals were sacraficed and the fallopian tubes examined for ova under a dissecting microscope. […] Thus, in its ovulation induction, the preferred compound of this invention, [D-2-(cyclohexyl)Gly^6, Pro-NHC2 H5^9 ]LHRH is about 10 times as active as [D-Ala^6, Pro-NHC2 H5^9 ]LH-RH and 30 times as active as LH-RH.

[2] = system: Mature, female, Sprague-Dawley rats; test: Anti-gravidity (claudogenic/interceptive) test in mated rats; format: in vivo; settings: rat; for Claudogen (D 1-7), Minimal Effective Dose (100% effect): days 1-7 of pregnancy; for Interceptive (D 7-12), Minimal Effective Dose (100% effect): days 7-12 of pregnancy
[3] = system: Proestrous female Sprague-Dawley rats; test: Ovulation induction in Nembutal-treated proestrous rats; format: in vivo; settings: P.O.; rat
[4] = cited from earlier work
LH secretion = settings: cited from earlier work

## LH-RH (QHWSYGLRPG; Gonadoliberin-1; UniProt P01148 24-33, looked up) [native hormone used as comparison in ovulation induction, reference compound]
[1]
  Dose giving ovulation inducing activity in 100 percent of the rats: about 3 μg per rat

## CCNC(=O)[C@@H]1CCCN1C(=O)[C@H](CCCNC(=N)N)NC(=O)[C@H](CC(C)C)N(C)C(=O)[C@H](NC(=O)[C@H](Cc1ccc(O)cc1)NC(=O)[C@H](CO)NC(=O)[C@H](Cc1c[nH]c2ccccc12)NC(=O)[C@H](Cc1c[nH]cn1)NC(=O)[C@@H]1CCC(=O)N1)C1CCCCC1 [Example 6]
[1]; i.v., rat
  Ovulation induction, Minimal Effective Dose (100% effect): 1.0 μg/rat
[1]
  Dose giving ovulation inducing activity in 100 percent of the rats: 1.0 μg per rat
[2]; P.O.
  Claudogen (D 1-7), Minimal Effective Dose (100% effect): > 1000 μg/rat
  Interceptive (D 7-12), Minimal Effective Dose (100% effect): > 1000 μg/rat
[2]; S.C.
  Claudogen (D 1-7), Minimal Effective Dose (100% effect): 10 μg/rat
  Interceptive (D 7-12), Minimal Effective Dose (100% effect): ~ 10 μg/rat
[3]
  Ovulation induction, Minimal Effective Dose (100% effect): > 10 μg/rat

## des-Gly^10 -Pro-NHC2 H5 -LH-RH
[4]; Fujino et al. 1972
  Activity relative to LH-RH: three to five times as active as LH-RH

## CCNC(=O)[C@@H]1CCCN1C(=O)[C@H](CCCNC(=N)N)NC(=O)[C@H](CC(C)C)NC(=O)[C@H](NC(=O)[C@H](Cc1ccc(O)cc1)NC(=O)[C@H](CO)NC(=O)[C@H](Cc1c[nH]c2ccccc12)NC(=O)[C@H](Cc1c[nH]cn1)NC(=O)[C@@H]1CCC(=O)N1)C1CCCCC1 [Example 5, L-pyroglutamyl-L-histidyl-L-tryptophyl-L-seryl-L-tyrosyl-D-2-(cyclohexyl)glycyl-L-leucyl-L-arginyl-L-prolinethylamide]
[1]; I.V., rat
  Ovulation induction, Minimal Effective Dose (100% effect): 0.10 μ/rat
[1]; rat
  Ovulation induction activity relative to LH-RH: ~30 times
  Ovulation induction activity relative to [D-Ala^6, Pro-NHC2 H5^9 ]LH-RH: about 10 times
[1]
  Dose giving ovulation inducing activity in 100 percent of the rats: 0.1 μg per rat
[2]; P.O.
  Claudogen (D 1-7), Minimal Effective Dose (100% effect): 200 μ/rat
  Interceptive (D 7-12), Minimal Effective Dose (100% effect): > 1000 μ/rat
[2]; S.C.
  Claudogen (D 1-7), Minimal Effective Dose (100% effect): ~ 1.0 μ/rat
  Interceptive (D 7-12), Minimal Effective Dose (100% effect): ~ 10 μ/rat
[3]
  Ovulation induction, Minimal Effective Dose (100% effect): ~ 10 μ/rat

## D-Ala^6 -LRH
[4]; Monahan et al. 1973
  Potency relative to LH-RH: more potent than LH-RH

## D-Ala^6, (N^α -Me)Leu^7 LH-RH
LH secretion; Ling et al. 1975
  Potency in stimulating the secretion of LH, percent of LH-RH's potency: 560%

## [D-Ala^6, des-Gly-NH2^10, Proethylamide]LH-RH [reference compound]
[1]
  Dose giving ovulation inducing activity in 100 percent of the rats: about 1 μg per rat
LH secretion; Coy et al. 1974
  Potency in stimulating LH secretion relative to D-Ala^6 -LH-RH: about twice
